Reference: a melting point compilation (Tetko et al.; mined from patent text by program, amines drawn as free bases though some values may be those of a salt)

Point of comparison: `Cn1nc(C(F)(F)F)c(C(=O)Nc2cccc3c2CCC3(C)C)c1Cl`, melting point 120 °C. Against it:
- CCC(C(=O)C(C)C(O)C(C)CCc1c(NC(C)=O)cc(C)c(O)c1C(=O)O)C1OC(CC)(C2CCC(O)(CC)C(C)O2)CC1C (stereo unspecified) — higher, 189 to 190 °C
- CCOC(=O)C1CCN(c2ccc(N)cc2C#N)CC1 — lower, 98 °C
- CC(C)Cn1nc(-c2ccc(F)c(F)c2)cc(C(=O)O)c1=O — higher, 163 to 164 °C
- Cc1ccccc1C(=O)Nc1ccc(C(=O)N2Cc3ccccc3Cc3ccccc32)c(Cl)c1 — higher, 138 to 150 °C
- COC(=O)NC1CCCCC1 — lower, 73 to 74 °C
- OCCCCCCOc1ccc(OCc2ccccc2)cc1 — lower, 94 to 97 °C
- Cc1cc([N+](=O)[O-])c(C)c2c1OC(C)(C)C2=O — higher, 124 to 126 °C
- CSC(=O)c1c(C(F)F)nc(C(F)(F)F)c(C(=O)SC)c1NC1CC1 — lower, 85 to 86 °C
- CCCCCCCCCCCCCCCCCCOC(=O)N(N)C(=O)c1cc(O)ccc1O — higher, 163 °C
- NC(=O)N1CCC(Br)C1=O (stereo unspecified) — higher, 128 to 129 °C
- CCNC(=O)c1ccsc1[Si](C)(C)C — lower, 114 to 116 °C
- CCCCCCCCC(SCCCCCC)C(=O)Nc1c(SC)cc(C)nc1SC (stereo unspecified) — lower, 75 to 76.5 °C
- Cc1cn(C2CC(O)C(CO)S2)c(=O)[nH]c1=O (stereo unspecified) — higher, 213 to 215 °C
- O=[N+]([O-])CS(=O)(=O)c1ccccc1F — lower, 59 °C
- CCN(C(=O)Cn1c(=O)n(C)c2nc(-c3ccccc3)ncc21)c1ccccc1 — higher, 240 to 242 °C
- CCOC(=O)c1c(NCC(=O)c2ccccc2)c2c(Cl)cc(Cl)cc2n1C(=O)OC(C)(C)C — higher, 143 to 144 °C
- Clc1ccc2c3c(cnc2c1)OC1(C=N3)CCCCC1 — higher, 216 to 218 °C
- CCc1cc(N2CCCCC2)c(S(C)(=O)=O)cc1C(=O)N=C(N)N — higher, 218 to 220 °C
- CC(=O)N(C)c1ccc(-c2cc3ccc(Br)cn3c2)cc1C — higher, 197 to 198 °C
- Cc1ccc2c(c1)NC(=O)[C@H](N)C[C@@H]2C1CCCCC1 (relative stereo) — lower, 64 to 66 °C
- N#Cc1cnc2sc(C#Cc3ccccn3)cc2c1Nc1ccc2[nH]ccc2c1 — higher, > 260 °C
- CCOC(=O)c1ccc(C2=NOC(c3cc(Cl)cc(Cl)c3)(C(F)(F)F)C2)cc1[N+](=O)[O-] (stereo unspecified) — higher, 160 to 162 °C
- CCOC(=O)c1ccc(Cn2cnc3ccncc32)cc1 — lower, 110 to 112 °C
- CCOc1cc(O)cc2c1C(=O)N(CSc1ccccc1)S2(=O)=O — higher, 204 to 205 °C
- CCOC(=O)c1ccc(NC(=O)C=C(c2ccccc2)c2ccccc2)cc1 — higher, 166 to 169 °C
- O=C(C=Cc1ccccc1)Oc1ccc(Br)cc1 — lower, 113 °C
- COC(=O)/C=C(\CCCCc1ccccc1)Sc1ccc(OC)c(OC)c1 — lower, 53 to 55 °C
- COc1ccnc(CCc2nc3cc(-c4ccc(S(=O)(=O)N5CCN(C)CC5)cc4)cnc3[nH]2)c1 — higher, 193 to 195 °C
- ON=Cc1cn2c(cnc3ccccc32)n1 — higher, 243 to 245 °C
- N[C@@H](Cc1ccc(C(F)(F)F)cc1)[C@H](O)c1ccoc1 (racemic) — lower, 91 to 92 °C
- N#Cc1cccc(CSc2nnc(-c3ccn4ncnc4c3)o2)c1 — higher, 196 to 197 °C
- COc1ccc2c(c1)C(C(=O)N(Cc1ccc(OCC(F)(F)F)cc1)c1ccc(C(C)C)cc1)CCC2 (stereo unspecified) — higher, 125 to 127 °C
- CCCCCCC(=N)NC(=S)Nc1ccc(C)cc1Cl — lower, 78 to 80 °C
- CC1CCCCN1CCC(CCN(C(C)C)C(C)C)(C(N)=O)c1ccccc1F (stereo unspecified) — lower, 90 to 91 °C
- ClCSc1c(Cl)c(Cl)cc(Cl)c1Cl — lower, 81 to 82 °C
- O=C(Nc1ccc(N2CCOCC2)cc1)Nc1ccc(C(F)(F)F)cc1 — higher, 228 to 232 °C
- CC(C)COC(=O)C(C#N)=CNCCc1ccco1 — lower, 42 to 44 °C
- CN(CC(=O)O)S(=O)(=O)c1csc2ccccc12 — higher, 139 to 140 °C
- CCOC(=O)C(C)(C)Oc1cc2c(cc1C)OC1(CC(C)(C)c3cc(O)c(C)cc3O1)CC2(C)C (single isomer, unassigned; (-)) — higher, 165 to 166 °C
- CCCCCCCCCCOc1cc(OCCCCCCCCCC)cc(C(=O)O)c1 — lower, 56 to 58 °C
- O=C(O)CCc1cc2cc(Cl)c(Cl)cc2n1S(=O)(=O)c1ccccc1 — higher, 192 to 198 °C
- COc1ccc(N(C)c2nc(N)nc3[nH]c4cccc(Cl)c4c23)cc1 — higher, 163 to 164 °C
- NS(=O)(=O)c1cccc2c1ccc1nc(O)c(O)nc12 — higher, 420 °C
- N#Cc1cccc(C2SC[C@@H](C(=O)O)N2C(=O)CCCCCC(=O)N2C(c3cccc(C#N)c3)SC[C@H]2C(=O)O)c1 (stereo partly specified) — lower, 105 to 112 °C
- O=C1CCCc2c(cccc2OCC2CO2)N1 (stereo unspecified) — higher, 121 to 123 °C
- COC(=O)[C@@]12CO[C@@H](C(C)(C)C)N1C(=O)[C@@H](C)C2 — lower, 107 to 108 °C
- O=C1C(c2ccccc2)=C2CCCCC2N1c1ccc(O)cc1 (stereo unspecified) — higher, 168 °C
- CCCCc1ccc(-c2ccc(OC)cc2F)nc1 — lower, 23.3 °C
- Cc1ccc(C(=O)NC(C)(C(N)=O)C(C)C)cc1 (stereo unspecified) — higher, 145 to 152 °C
- COCC1OC(n2cnc3c(NCc4cccc(I)c4)nc(Cl)nc32)C(O)C1O (stereo unspecified) — lower, 84 to 86 °C
- Nc1ccccc1C(=O)Nc1cccnc1Cl — higher, 172 to 175 °C
- CC(=O)c1cnn(C)c1S(N)(=O)=O — higher, 153 to 162 °C
- OP(O)C1(NC(c2ccccc2)c2ccccc2)CCCCC1 — higher, 194 to 196 °C
- CCC(Cn1cncn1)(C(=O)O)c1ccc(Cl)cc1Cl (stereo unspecified) — higher, 206 to 208 °C
- CCCCN(CCCC)c1ccc(C2(c3cc(Nc4ccccc4)ccc3OC)OC(=O)c3ccccc32)c(O)c1 (stereo unspecified) — higher, 148 to 152 °C
- O=C(O)Cc1cccc(-c2ccccc2OC2OC(CO)C(O)C(O)C2O)c1 (stereo unspecified) — lower, 85 to 86 °C
- O=C(Nc1ccc(F)cc1)N(O)Cc1ccc(OCc2csc(-c3ccc(C(F)(F)F)cc3)n2)cc1 — higher, 174 to 176 °C
- N#CNC(=N)CCCc1ccccc1Sc1ccccc1CCCC(=N)NC#N — higher, 155 to 157 °C
- CC(C)Oc1ccc(-c2ccc3c(c2)C=C(C(=O)Nc2ccc(CN(C)C4CCOCC4)cc2)CCS3(=O)=O)cc1 — higher, 245 to 247 °C
- COc1ccc(C(=O)Nc2cccc3c2CCN(C)C3)cc1 — higher, 170 to 172 °C
- CCCCc1oc2ccccc2c1-c1ncc(-c2ccc3cc(O)ccc3c2)o1 — higher, 184 to 186 °C
- O=c1c2cnc(-c3ccccc3)nc2sn1Cc1ccccn1 — higher, 154 to 156 °C
- Cc1cccc(NC(=O)NCC(=O)Nc2ccccc2C(=O)c2cccs2)c1 — higher, 208 to 210 °C
- O=C1C(C(c2ccccc2)c2ccccc2)NC2CCCC3C(C2)C13 (stereo unspecified) — higher, 178 to 181 °C
- COC(=O)c1ccc2[nH]c(=O)oc(=O)c2c1 — higher, 275 to 278 °C
- CCOC(=O)N(N)C(=O)c1cc(Cl)ccc1O — higher, 172 °C
- O=C1Nc2ccccc2N2CCN(CCc3ccncc3)CC12 (stereo unspecified) — higher, 184 to 186 °C
- CC(C)n1nc(-c2cnc(N)nc2-c2cccs2)ccc1=O — higher, 213 °C
- NS(=O)(=O)c1cc2cccnc2s1 — higher, 223 to 225 °C
- CC1=NC(C)(COc2ccc(NC(=O)c3cc(F)cc(N4CCOCC4)c3)c3ccccc23)CO1 (stereo unspecified) — higher, 203 to 206 °C
